Usually fraction unbound stands for free concentration divided by total concentration. Broadly, the IC50 is the concentration at which inhibition is half-maximal. A low value points to greater potency.

The record followed here is article PMC8767159, “Multiparameter Optimization of Trypanocidal Cruzain Inhibitors With In Vivo Activity and Favorable Pharmacokinetics” (Frontiers in Pharmacology, 2022).

Molecules are shown by their SMILES.

A short description of series [1]: Fraction unbound by equilibrium dialysis. It counts as in vitro ADME. The conditions noted are these: pH 7.4. As to the method: The fraction unbound (fu) ([Masimirembwa et al., 2003]) of the test compounds was determined after incubation with different media, namely, plasma, microsomes, and buffer with 10% FCS. Equilibrium dialysis was performed in a 96-well plate (HT-Dialysis, Gales Ferry, CT) in which each well was divided by a semipermeable membrane (12–14 kDa cutoff). The test compounds diluted in either plasma, microsome suspension, or buffer were added to one side of the membrane. Potassium phosphate buffer (50 mM, pH 7.4) was added to the other side of the membrane. A standard curve was used to calculate the compound concentration (fu) on each side of the membrane. Stock solutions of each compound were prepared in 100% DMSO to obtain a final concentration of 1 mM. The following compound concentrations were used: 1, 2, 20, 200, 2,000 and 5,000 nM. To 500 μl of medium, 0.5 μl of the compound stock solution was added, and this was applied to one side of the well. Each compound was evaluated in triplicate. Next, the plate was assembled, sealed, and incubated at 37°C under rotation (150 rpm) for 4 h. After the incubation period, the plates were subjected to LC-MS/MS.
Background: In equilibrium dialysis only unbound substance equilibrates across the membrane.

Series [2] concerns T. cruzi intracellular amastigotes. Put plainly: Assay against T. cruzi intracellular amastigotes (Tulahuen lacZ strain in HFF-1 fibroblasts). It counts as cell-based, Trypanosoma cruzi. As to the method:
Biological assays against T. cruzi intracellular amastigotes were performed as reported previously using the T. cruzi Tulahuen strain, which is genetically engineered to express the E. coli β-galactosidase gene lacZ ([Buckner et al., 1996]). β-Galactosidase catalyzes a colorimetric reaction with chlorophenol red β-D-galactopyranoside (CPRG, Sigma Chemical Co., St. Louis, MO) as the substrate. The assays were conducted in 96-well tissue culture plates, and the compounds to be tested were prepared in 100% DMSO. Epimastigotes were maintained in liver infusion tryptone (LIT) enriched with 10% fetal calf serum (FCS), streptomycin, and penicillin at 28°C. Epimastigotes were converted to trypomastigotes by incubation in Grace’s insect medium (Sigma–Aldrich, St. Louis, MO) enriched with 10% FCS at 28°C. Human HFF-1 fibroblasts were seeded at 2 × 10^3/well in 80 μl of RPMI 1640 without phenol red and incubated overnight at 37°C and 5% CO2. Trypomastigotes were seeded at 1.0 × 10^4/well in 20 μl of RPMI 1640, and the plates were incubated at 37°C and 5% CO2. The next day, the synthesized compounds were added (50 μl) in 3-fold serial dilutions at concentrations ranging from 0.4 to 300 μM, and the plates were incubated at 37°C and 5% CO2. Each compound concentration was assayed in triplicate. After 120 h, 50 μl of chlorophenol red β-D-galactopyranoside (CPRG, Sigma–Aldrich) and IGEPAL CA-630 (Sigma–Aldrich) at a final concentration of 0.1% were added. The absorbance was measured at a wavelength of 570 nm in an automated microplate reader. The data were transferred to SigmaPlot 10.0 (Systat Software Inc., Erkrath, Germany) to determine the IC50 values. Benznidazole (BZ, Sigma–Aldrich) was used as a positive control, and untreated wells (100% parasite growth) were used as negative controls in all plates. All compounds were tested in three independent assays.

[3] abbreviates: Table 5, fraction unbound used to correct CLint.
Setting [4] is: Table 6, fraction unbound used to correct plasma clearance.
[5] abbreviates: Trypanosoma cruzi, HFF-1, Table 4, mean ± SD of three assays.
The mark [6] stands for this setting: Table S6, fraction unbound used to correct plasma clearance.
Setting [7] is: Trypanosoma cruzi, HFF-1, 120 h, Table 3, 120 h, mean ± SD of three assays.

The compound `O=C(COc1cccc(NC(=O)CCCO)c1)NCCc1nc2ccccc2[nH]1` [Compound 7] returned a fraction unbound at 4 h, 1 µM in series [1] (Table S5, fraction unbound) of 1.
`O=C(COc1ccc(Br)cc1)NCCc1nc2ccccc2[nH]1` [Compound 33]: the fraction unbound at 4 h, 1 µM in series [1] (setting [3]) is 0.8; in series [1] (setting [4]) it was 0.16. The IC50 in series [2] (setting [5]) was determined as 6.68 ± 2.35 µM.
Consider `CC(=O)Nc1cccc(OCC(=O)NCCc2nc3ccccc3[nH]2)c1` [Compound 3], for which the fraction unbound at 4 h, 1 µM in series [1] (Table S5, fraction unbound) amounted to 1; in series [1] (setting [6]) it was 0.16. Further, the IC50 in series [2] (setting [7]) and in series [2] (setting [5]) was 5 ± 1 µM in each case.
On to `O=C(COc1ccccc1)NCCc1nc2ccccc2[nH]1` [Compound 1], for which the fraction unbound at 4 h, 1 µM was determined as 1 in series [1] (Table S5, fraction unbound) and 0.23 in series [1] (setting [6]). Also, the IC50 in series [2] (setting [7]) and in series [2] (setting [5]) was 3.9 ± 0.3 µM throughout.
As to `O=C(COc1ccccc1[N+](=O)[O-])NCCc1nc2ccccc2[nH]1` [Compound 32], the fraction unbound at 4 h, 1 µM amounted to 0.7 in series [1] (setting [3]) and 0.04 in series [1] (setting [4]). The IC50 in series [2] (setting [5]) is 7.9 ± 2.13 µM.
As to `O=C(COc1ccccc1)NCCc1nc2ccccc2n1Cc1ccccc1` [Compound 26], the fraction unbound at 4 h, 1 µM in series [1] (Table S5, fraction unbound) worked out at 0.61. Further, the IC50 in series [2] (setting [7]) and in series [2] (setting [5]) was 7.4 ± 2 µM each time.
`C=CCCn1c(CCNC(=O)COc2ccccc2)nc2ccccc21` [Compound 27] came in with a fraction unbound at 4 h, 1 µM in series [1] (Table S5, fraction unbound) of 0.86. The IC50 in series [2] (setting [7]) and in series [2] (setting [5]) was 6.9 ± 2.2 µM throughout.
For the compound `NC(=O)Cn1c(CCNC(=O)COc2ccccc2)nc2ccccc21` [Compound 28], the fraction unbound at 4 h, 1 µM in series [1] (Table S5, fraction unbound) was determined as 0.98; in series [1] (setting [6]), 0.18. Also, the IC50 in series [2] (setting [7]) and in series [2] (setting [5]) was 6.8 ± 0.9 µM each time.
Take `Cc1ccccc1OCC(=O)NCCc1nc2ccccc2[nH]1` [Compound 17]: the results for the fraction unbound at 4 h, 1 µM in series [1] (setting [3]) and in series [1] (setting [4]) were 0.8 and 0.06, respectively. This compound came in with an IC50 in series [2] (setting [5]) of 2.81 ± 0.75 µM.
With `Nc1cccc(OCC(=O)NCCc2nc3ccccc3[nH]2)c1` [Compound 9], the fraction unbound at 4 h, 1 µM in series [1] (Table S5, fraction unbound) worked out at 0.99. Besides, inhibition in series [2] (setting [7]) was half-maximal at 5.4 ± 0.9 µM (IC50).
`O=C(CCc1ccccc1Br)NCCc1nc2ccccc2[nH]1` [Compound 36]: the fraction unbound at 4 h, 1 µM stood at 0.8 in series [1] (setting [3]) and 0.04 in series [1] (setting [4]).
For `Cn1c(CCNC(=O)COc2ccccc2)nc2ccccc21` [Compound 25], in series [1] (Table S5, fraction unbound), the fraction unbound at 4 h, 1 µM is 0.99. Also, in series [2] (Table 3, 120 h, mean ± SD of three assays), the “IC50 T. cruzi (μM)” value is “inactive”. Moreover, in series [2] (setting [7]), the IC50 is approximately 100 µM.
With `O=C(COc1ccc(NC(=O)CCCO)cc1)NCCc1nc2ccccc2[nH]1` [Compound 5], the unbound share (fraction unbound) at 4 h, 1 µM in series [1] (Table S5, fraction unbound) is 0.96. The compound further came in with an IC50 in series [2] (setting [5]) of approximately 50 µM.
Consider `N#Cc1ccccc1OCC(=O)NCCc1nc2ccccc2[nH]1` [Compound 31], for which the fraction unbound at 4 h, 1 µM in series [1] (setting [3]) is 0.9; in series [1] (setting [4]), 0.15.
In series [1] (Table S5, fraction unbound), `O=C(COc1ccccc1)NCCc1nc2ccccc2n1CCOCc1ccccc1` [Compound 21] returned a fraction unbound at 4 h, 1 µM of 0.47.
For `C=CCCn1c(CCNC(=O)COc2ccccc2Cl)nc2ccccc21` [Compound 38], the fraction unbound at 4 h, 1 µM in series [1] (setting [3]) was determined as 0.5; in series [1] (setting [4]), 0.01. Also, the IC50 in series [2] (setting [5]) is 11.1 ± 3.19 µM.
On to `O=C(COc1ccc2cc(O)ccc2c1)NCCc1nc2ccccc2[nH]1` [Compound 10], for which the fraction unbound at 4 h, 1 µM in series [1] (Table S5, fraction unbound) was determined as 0.82; in series [1] (setting [6]), 0.34. The 50% inhibitory concentration (IC50) in series [2] (setting [7]) and in series [2] (setting [5]) was 14.6 ± 0.7 µM in each case.
Take `COCCn1c(CCNC(=O)COc2ccccc2)nc2ccccc21` [Compound 29]: in series [1] (Table S5, fraction unbound), the fraction unbound at 4 h, 1 µM was found to be 1.
The same measure, in the same setting: with `O=C(COc1ccccc1)NCCc1nc2ccccc2n1CCOc1ccccc1Br` [Compound 19] the figure was 0.12.
For `O=C(COc1cccc([N+](=O)[O-])c1)NCCc1nc2ccccc2[nH]1` [Compound 8], the fraction unbound at 4 h, 1 µM in series [1] (Table S5, fraction unbound) was found to be 1; in series [1] (setting [6]), 0.14. Besides, the IC50 in series [2] (setting [7]) and in series [2] (setting [5]) was 3.5 ± 0.7 µM throughout.
Consider `O=C(COc1ccc(N2C(=O)CCC2=O)cc1)NCCc1nc2ccccc2[nH]1` [Compound 4], for which the fraction unbound at 4 h, 1 µM in series [1] (Table S5, fraction unbound) amounted to 0.99.
Regarding `O=C(COc1ccc2ccccc2c1)NCCc1nc2ccccc2[nH]1` [Compound 35], the fraction unbound at 4 h, 1 µM in series [1] (setting [3]) was determined as 0.5; in series [1] (setting [4]) it was 0.02. This compound also displayed an IC50 in series [2] (setting [5]) of 46.1 ± 6.21 µM.
In turn, `O=C(COc1ccccc1)NCCc1nc2ccccc2n1CCOc1ccccc1` [Compound 20] showed a fraction unbound at 4 h, 1 µM in series [1] (Table S5, fraction unbound) of 0.41. The IC50 in series [2] (setting [7]) and in series [2] (setting [5]) was 2.04 ± 0.6 µM each time.
As to `CC(=O)Nc1ccc(OCC(=O)NCCc2nc3ccccc3[nH]2)cc1` [Compound 2], the fraction unbound at 4 h, 1 µM in series [1] (Table S5, fraction unbound) was 1; in series [1] (setting [6]), 0.49. The results for the IC50 in series [2] (setting [7]) and in series [2] (setting [5]) were 4.5 ± 0.6 µM and 12.1 ± 1.3 µM, respectively.
`O=C(COc1ccc2ccc(O)cc2c1)NCCc1nc2ccccc2[nH]1` [Compound 11]: the fraction unbound at 4 h, 1 µM in series [1] (Table S5, fraction unbound) came to 0.67; in series [1] (setting [6]) it was 0.03. In series [2] (setting [7]), this compound showed an IC50 of 2.8 ± 0.6 µM.
`O=C(COc1cccc(N2C(=O)CCC2=O)c1)NCCc1nc2ccccc2[nH]1` [Compound 6]: the unbound share (fraction unbound) at 4 h, 1 µM in series [1] (Table S5, fraction unbound) is 1.
On to `O=C(COc1ccccc1)NCCc1nc2ccccc2n1CCCOc1ccccc1` [Compound 24], for which the fraction unbound at 4 h, 1 µM in series [1] (Table S5, fraction unbound) is 0.27. The IC50 in series [2] (setting [7]) and in series [2] (setting [5]) was 1.43 ± 0.4 µM in each case.
`O=C(COc1ccccc1)NCCc1nc2ccccc2n1-c1ccccc1` [Compound 30] returned a free fraction (fraction unbound) at 4 h, 1 µM in series [1] (Table S5, fraction unbound) of 0.63.
The compound `Cc1ccccc1OCC(=O)NCCc1nc2ccccc2n1CCOc1ccccc1Br` [Compound 22] had a fraction unbound at 4 h, 1 µM in series [1] (Table S5, fraction unbound) of 0.03.
Still for that read-out and setting: for `O=C(COc1ccccc1Br)NCCc1nc2ccccc2n1CCOc1ccccc1Br` [Compound 23] the value was 0.04.
For `Cc1ccccc1OCC(=O)NCCc1nc2ccccc2o1` [Compound 37], the fraction unbound at 4 h, 1 µM came out at 0.9 in series [1] (setting [3]) and 0.05 in series [1] (setting [4]). The compound further gave an IC50 in series [2] (setting [5]) of 2.9 ± 0.66 µM.
For the compound `O=C(COc1ccc2ccccc2c1Br)NCCc1nc2ccccc2[nH]1` [Compound 34], the fraction unbound at 4 h, 1 µM in series [1] (setting [3]) is 0.1. In addition, the IC50 in series [2] (setting [5]) amounted to 16.2 ± 3.51 µM.
In turn, `O=C(COc1ccc2c(C(=O)O)cccc2c1)NCCc1nc2ccccc2[nH]1` [Compound 15] showed a fraction unbound at 4 h, 1 µM in series [1] (Table S5, fraction unbound) of 1.
Turning to `O=C(Cn1ccnc1[N+](=O)[O-])NCc1ccccc1` [BZ, benznidazole, reference compound], the fraction unbound at 4 h, 1 µM stood at 1 in series [1] (setting [3]) and 0.99 in series [1] (setting [4]). In addition, the IC50 amounted to 1.45 ± 0.4 µM in series [2] (Trypanosoma cruzi, HFF-1, Table 3, 120 h, mean ± SD of three assays) and 3 ± 0.6 µM in series [2] (setting [5]).
In series [2] (setting [7]), `COc1ccc2cc(OCC(=O)NCCc3nc4ccccc4[nH]3)ccc2c1` [Compound 12] registered an IC50 of 16.6 ± 2.4 µM.
Turning to `O=C(COc1ccccc1Br)NCCc1nc2ccccc2[nH]1` [Compound 18], the results for the fraction unbound at 4 h, 1 µM in series [1] (setting [3]) and in series [1] (setting [4]) were 0.6 and 0.03, respectively. The IC50 in series [2] (Table 4, mean ± SD of three assays) came to 1.63 ± 0.57 µM; in series [2] (setting [5]), 1.6 µM.
